Earlier results in patent US12584131B2, “Methods of gene therapy” (OREGON HEALTH & SCIENCE UNIVERSITY, priority 2018, dated 2026).

system: CYP enzymes; settings: not given

SMILES | Metabolizing CYP
CC(=O)Nc1ccc(O)cc1 [Acetaminophen] | CYP2E1, CYP1A2, CYP3A4, CYP2D6
O=P1(N(CCCl)CCCl)NCCCO1 (stereo not drawn) [Cyclophosphamide] | CYP2B6, CYP2C9, CYP3A4

same assay, conditions: CYP enzymes that activate the prodrug (protoxin)

SMILES | Metabolizing CYP
CN(C)/N=N/c1[nH]cnc1C(N)=O [Dascarbazine] | CYP1A1, CYP1A2, CYP2E1
CC(=O)N1CCN(c2ccc(OCC3COC(Cn4ccnc4)(c4ccc(Cl)cc4Cl)O3)cc2)CC1 (stereo not drawn) [Ketoconazole] | CYP3A4
C/C=C1\C[C@@H](C)[C@@](C)(O)C(=O)OC/C2=C/CN(C)CC[C@@H](OC1=O)C2=O [Senkirkin] | CYP3A4
Nc1c2c(nc3ccccc13)CCCC2 [Tacrine] | CYP1A2
O=c1[nH]c(=O)n(C2CCCO2)cc1F (stereo not drawn) [Tegafur] | CYP2A6, CYP1A2, CYP2C8
COc1cccc(C2(O)CCCCC2CN(C)C)c1 (stereo not drawn) [Tramadol] | CYP2D6

same assay, conditions: listed as acetaminophen

SMILES | Metabolizing CYP
CC(=O)Nc1ccc(O)cc1 [Acetaminophen] | CYP1A2, CYP2E1, and CYP3A4
